Data reported in patent publication US6620828B2, “Thiazole compounds and pharmaceutical compositions for inhibiting protein kinases and methods for their use” (Agouron Pharmaceuticals, Inc., priority 1999, dated 2003).
pIC50, pKi: −log10 of the molar value. Like-named read-outs stand apart in the source and are kept apart here.

Assays:
[1] = molecular target: T1, phosphorylated VEGF-R2Δ50 (FLVK-P) (Homo sapiens, UniProt P35968, DEL940-989/E990V); test: VEGF-R2 coupled spectrophotometric (FLVK-P) assay; assay type: biochemical; conditions: spectrophotometric assay
T1 construct: VEGF-R2Δ50 contains residues 806-939 and 990-1171; made in house; host or cells: baculovirus/insect cells
Method in brief: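 Baculovirus-expressed human VEGF-R2Δ50 (residues 806-939/990-1171, E990V) was autophosphorylated with 3 mM ATP, 40 mM MgCl2 for 2 h at 4° C. ADP formation was coupled via PK/LDH to NADH oxidation, read at 340 nm, with 5.1 mM poly(E4Y1), 1 mM ATP, 25 mM MgCl2, Hepes pH 7.5. Ki came from activity across compound concentrations.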

[2] = system: lung cancer cells (line MV522); test: Cancer cell proliferation (MV522) assay; assay type: cell-based
[3] = molecular target: T2, FGF-R1 (Homo sapiens, UniProt P11362, C488A/C584S/L457V); test: FGF-R spectrophotometric assay; assay type: biochemical; conditions: for inhibition at 1 µM: Table 3, % inh @ 1 uM, read-out: FGF-P Ki (nM) (% inh @ 1 uM)
T2 construct: starting from the endogenous methionine residue 456 to glutamate 766; made in house; host or cells: baculovirus vector expression system
Method in brief: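 Kinase domain (Met456–Glu766, baculovirus-expressed) used at 50 nM in a spectrophotometric assay run as for VEGF-R2. Substrates were 2 mM ATP and 15 mM poly(E4Y1).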

[4] = molecular target: T3, FAKcd409 (Homo sapiens, UniProt Q05397, P410T); test: FAK HTS assay; assay type: biochemical; conditions: 10 uM compound, HTS Delphia assay
T3 construct: comprises residues methionine 409 to glutamate 689; made in house; host or cells: baculovirus vector expression system

[5] = molecular target: T4, CHK1 (Homo sapiens, UniProt O14757); test: CHK1 high-throughput screening; assay type: biochemical; conditions: read-out: % inhibition @ 20 μM, Table 4, repeated entries per example
T4 sequence (O14757 1-476): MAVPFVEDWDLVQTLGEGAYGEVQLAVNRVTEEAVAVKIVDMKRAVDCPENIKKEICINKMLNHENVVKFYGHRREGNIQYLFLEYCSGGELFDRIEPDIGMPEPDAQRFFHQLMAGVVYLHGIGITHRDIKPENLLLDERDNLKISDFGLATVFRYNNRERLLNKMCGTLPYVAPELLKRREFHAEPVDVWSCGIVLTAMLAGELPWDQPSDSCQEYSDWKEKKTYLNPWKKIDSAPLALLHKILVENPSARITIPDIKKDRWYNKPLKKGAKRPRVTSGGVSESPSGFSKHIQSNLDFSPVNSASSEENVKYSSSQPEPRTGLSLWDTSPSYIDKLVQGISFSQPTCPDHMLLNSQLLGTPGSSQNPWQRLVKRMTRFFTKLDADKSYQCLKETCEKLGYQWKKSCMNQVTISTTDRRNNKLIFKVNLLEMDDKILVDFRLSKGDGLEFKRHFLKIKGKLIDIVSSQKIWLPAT

[6] = system: human umbilical vein endothelial cells (HUVEC); test: HUVEC proliferation assay; assay type: cell-based; conditions: Homo sapiens, HUVEC
Method in brief: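 Exponentially growing HUVEC were serum-starved 24 h (F12K + 1% FBS), pre-treated 1 h with compound (0.1% DMSO final), then stimulated with 6 ng/ml VEGF. Proliferation was read 72 h later by MTT reduction (A595). IC50 came from seven 0.5-log concentrations in triplicate; screens gave % inhibition relative to VEGF-only and starved wells.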

[7] = system: VEGF; test: In vivo assay of retinal vascular development in neonatal rats; set-up: species or system rat; conditions: development model; intravitreal, 2 μl of 5 mg/ml initial drug concentration
Text: In Vivo Assay of Retinal Vascular Development in Neonatal Rats
The development of the retinal vascular in rats occurs from postnatal day 1 to postnatal day 14 (P1-P14). This process is dependent on the activity of VEGF (J. Stone, et al, J. Neurosci., 15, 4738 (1995)). […] To assess the ability of specific compounds to inhibit the activity of VEGF in vivo, compounds were formulated in an appropriate vehicle, usually 50% polyethylene glycol, average molecular weight 400 daltons, and 50% solution of 300 mM sucrose in deionized water. Typically, two microliters (2 μl) of the drug solution was injected into the midvitreous of the eye of rat pups on postnatal day 8 or 9. Six days after the intravitreal injection, the animals were sacrificed and the retinas dissected free from the remaining ocular tissue. […] The individual retinas are then flat-mount onto glass slides and examined to determine the extent of vascularization. […] The amount of vessel regression was used to assess the relative potency of the compounds after in vivo administration. Vessel regression is graded on subjective scale of one to three pluses, with one plus being detectable regression judged to be approximately 25 percent or less, two pluses being judged to be approximately 25-75% regression and three pluses give to retinas with near total regression (approximately 75% or greater).

[8] = molecular target: T5, unphosphorylated VEGF-R2Δ50 (FLVK) (Homo sapiens, UniProt P35968, DEL940-989/E990V); test: VEGF-R2 coupled spectrophotometric assay, unphosphorylated enzyme (FLVK); assay type: biochemical
T5 construct: VEGF-R2Δ50 contains residues 806-939 and 990-1171; made in house; host or cells: baculovirus/insect cells
Method in brief: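 Unphosphorylated VEGF-R2Δ50 (5 to 40 nM) with 20 mM poly(E4Y1), 3 mM ATP, 60 mM MgCl2, 2 mM MnCl2 in 200 mM Hepes pH 7.5. ADP production coupled via PK/LDH to NADH oxidation, read at 340 nm. Ki from activity at varying compound concentrations.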

[9] = molecular target: T6, LCK tyrosine kinase (Homo sapiens, UniProt P06239, C224D/P223M); test: LCK spectrophotometric assay; assay type: biochemical; conditions: for pKi: Table 3, first value of cells with two values
T6 construct: starting from amino acid residue 223 to the end of the protein at residue 509; made in house; host or cells: insect cells
Protocol: LCK Construct for Assay: The LCK tyrosine kinase was expressed in insect cells as an N-terminal deletion starting from amino acid residue 223 to the end of the protein at residue 509, with the following two amino acid substitutions at the N-terminus: […] and C224D.
The spectrophotometric assay was carried out as described above for VEGF-R2, except for the following changes in concentration: LCK=60 nM, MgCl2=0 mM, poly(E4Y1)=20 mM.

[10] = molecular target: T6, LCK tyrosine kinase; test: LCK spectrophotometric assay; assay type: biochemical; conditions: Table 3, read-out: LCK (% inh @ 1 uM)
[11] = Table 3, some entries 'Slow binder'

T2 sequence (P11362 456-766 L457V/C488A/C584S): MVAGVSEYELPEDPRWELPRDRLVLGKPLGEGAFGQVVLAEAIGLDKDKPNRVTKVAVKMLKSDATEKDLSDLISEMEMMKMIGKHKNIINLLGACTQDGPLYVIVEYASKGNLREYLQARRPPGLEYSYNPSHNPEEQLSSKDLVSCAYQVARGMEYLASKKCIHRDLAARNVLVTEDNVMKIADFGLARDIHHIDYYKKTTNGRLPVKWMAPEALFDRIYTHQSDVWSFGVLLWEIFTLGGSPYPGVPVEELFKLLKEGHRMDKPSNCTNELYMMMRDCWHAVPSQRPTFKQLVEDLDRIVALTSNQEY
T5 sequence (P35968 with tags, fused parts or gaps DEL940-989/E990V limits assumed): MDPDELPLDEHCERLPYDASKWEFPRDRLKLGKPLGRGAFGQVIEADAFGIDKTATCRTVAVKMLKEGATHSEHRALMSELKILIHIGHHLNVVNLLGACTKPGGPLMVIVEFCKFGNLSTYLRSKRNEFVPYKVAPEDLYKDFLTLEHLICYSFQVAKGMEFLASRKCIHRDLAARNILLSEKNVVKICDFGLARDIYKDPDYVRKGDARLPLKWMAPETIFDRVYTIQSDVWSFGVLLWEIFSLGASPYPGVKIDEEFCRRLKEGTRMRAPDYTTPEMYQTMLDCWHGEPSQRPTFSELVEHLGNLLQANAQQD
T6 sequence (P06239 223-509 P223M/C224D): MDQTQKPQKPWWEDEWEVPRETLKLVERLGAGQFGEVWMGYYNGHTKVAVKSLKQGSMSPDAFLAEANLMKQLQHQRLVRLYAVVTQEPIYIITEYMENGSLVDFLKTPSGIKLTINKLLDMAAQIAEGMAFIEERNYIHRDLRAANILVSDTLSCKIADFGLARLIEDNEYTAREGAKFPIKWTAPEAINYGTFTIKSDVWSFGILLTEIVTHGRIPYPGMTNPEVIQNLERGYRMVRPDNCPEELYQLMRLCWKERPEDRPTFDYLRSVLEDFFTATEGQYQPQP
T1 sequence (P35968 with tags, fused parts or gaps DEL940-989/E990V limits assumed): as the sequence (P35968 with tags, fused parts or gaps DEL940-989/E990V limits assumed) above
T3 sequence (Q05397 409-689 P410T): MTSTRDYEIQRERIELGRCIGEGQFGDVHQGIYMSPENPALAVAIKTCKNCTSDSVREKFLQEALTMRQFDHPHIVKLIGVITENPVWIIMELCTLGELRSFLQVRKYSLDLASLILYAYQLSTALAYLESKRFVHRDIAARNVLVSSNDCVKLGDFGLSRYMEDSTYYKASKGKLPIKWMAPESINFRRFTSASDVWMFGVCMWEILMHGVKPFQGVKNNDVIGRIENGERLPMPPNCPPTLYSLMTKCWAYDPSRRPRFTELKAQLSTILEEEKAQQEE

Q: What does the source list for `COc1cc(Nc2nc(N)c(-c3nc(-c4cc(O)ccc4Br)cs3)s2)cc(OC)c1OC` [A(26), 3-[4′-Amino-2′-(3,4,5-trimethoxy-phenylamino)-[2,5′]bithiazolyl-4-yl]-4-bromophenol]?
A: pKi ([1]; Table 2): 7.85; pIC50 ([2]; MV522, Table 2): 5.12; FGF-R % inhibition @ 5 ([3]; Table 2, at 5 (head μM)): 52% @; % inhibition of FAK [4]: 72%; inhibition at 20 µM [5]: 42.5%; pIC50 ([6]; Table 2): < 6.00; melting point: 214 to 216 °C

Q: For `CCn1nc(C)cc1C(=O)Nc1ccc(C)c(-c2noc(-c3sc(Nc4ccc(CO)cc4)nc3N)n2)c1` [B(30)], which Vessel regression grade [7] is on record?
A: Its Vessel regression grade is “++ (two pluses being judged to be approximately 25-75% regression)”.

Q: And the pKi [8, 11]?
A: Its pKi is 10.07.

Q: With `COc1cc(Nc2nc(N)c(-c3nc(-c4cc(NC(=O)c5cccc(Cl)c5)ccc4Cl)no3)s2)cc(OC)c1OC` [D(64)] as the compound, how does the pKi [9] read?
A: The pKi was 8.49.

Q: What about the pIC50 ([2]; MV522, Table 3) of the same compound?
A: The pIC50 was 5.70.

Q: What about the inhibition at 1 µM [3] of the same compound?
A: Its inhibition at 1 µM is 84%.

Q: What about the inhibition at 1 µM [10] of the same compound?
A: Its inhibition at 1 µM is 94%.

Q: What about the pIC50 ([6]; Table 3) of the same compound?
A: The pIC50 was 7.00 to 8.00.

Q: And the pKi [8, 11]?
A: Its pKi is 8.85.

Q: With `COc1cccc(C(=O)Nc2ccc(Cl)c(-c3noc(-c4sc(Nc5cc(OC)c(OC)c(OC)c5)nc4N)n3)c2)c1` [D(65), N-(3-{5-[4-Amino-2-(3,4,5-trimethoxy-phenylamino)-thiazol-5-yl]-[1,2,4]oxadiazyl}-4-chloro-phenyl)-3-methoxy-benzamide] as the compound, how does the pKi [9] read?
A: Its pKi is 8.03.

Q: What about the pIC50 ([2]; MV522, Table 3) of the same compound?
A: Its pIC50 is 5.68.

Q: And the inhibition at 1 µM [3]?
A: Its inhibition at 1 µM is 37%.

Q: And the inhibition at 1 µM [10]?
A: Its inhibition at 1 µM is 91%.

Q: What about the pIC50 ([6]; Table 3) of the same compound?
A: The pIC50 was 8.37.

Q: And the pKi [8, 11]?
A: The pKi was 9.00.

Q: With `COc1cc(Nc2nc(N)c(-c3nc(-c4cc(NC(=O)c5cccc(Cl)c5)ccc4C)no3)s2)cc(OC)c1OC` [D(75), 3-[3-[(3-chlorobenzoyl)amino]-6-methyl-phenyl]-5-[2-[(3,4,5-trimethoxyphenyl)amino]-4-amino-5-thiazolyl]-1,2,4-oxadiazole] as the compound, how does the pKi [9] read?
A: The pKi was 8.96.

Q: What about the inhibition at 1 µM [3] of the same compound?
A: Its inhibition at 1 µM is 64%.

Q: What about the inhibition at 1 µM [10] of the same compound?
A: The inhibition at 1 µM was 97%.

Q: What about the pIC50 ([6]; Table 3) of the same compound?
A: The pIC50 was 8.11.

Q: With `CC(=O)Nc1nc(N)c(-c2nc(-c3cccc(NC(=O)c4ccccc4)c3)cs2)s1` [F(9), N-[3-(2′-Acetylamino-4′-amino-[2,5′]bithiazolyl-4-yl)-phenyl]benzamide] as the compound, how does the pKi ([1]; Table 1) read?
A: The pKi was 8.11.

Q: What about the inhibition at 1 µM ([9]; Table 1, 1 μM) of the same compound?
A: The inhibition at 1 µM was 12%.

Q: And the pIC50 ([2]; MV522, Table 1)?
A: The pIC50 was < 5.00.

Q: And the pIC50 ([6]; Table 1)?
A: The pIC50 was 7.68.

Q: What about the pKi ([8]; Table 1) of the same compound?
A: Its pKi is 8.02.
